Several values for one entry are separate records, joined by “and”; a condition that tells them apart may be missing. Identical values can stand only once. ± gives the uncertainty stated by the source.
Assay: xn = mol fraction of the nth substance listed

Cc1ccccc1C + CCOC(C)=O
Settings	viscosity [mPa·s]
298.15 K, 101 kPa, x2 = 0.0459	0.74 ± 0.005
298.15 K, 101 kPa, x2 = 0.1515	0.698 ± 0.005
298.15 K, 101 kPa, x2 = 0.2504	0.661 ± 0.005
298.15 K, 101 kPa, x2 = 0.349	0.625 ± 0.005
298.15 K, 101 kPa, x2 = 0.4636	0.586 ± 0.005
298.15 K, 101 kPa, x2 = 0.4948	0.576 ± 0.005
298.15 K, 101 kPa, x2 = 0.5519	0.557 ± 0.005
298.15 K, 101 kPa, x2 = 0.6488	0.527 ± 0.005
298.15 K, 101 kPa, x2 = 0.7509	0.496 ± 0.004
298.15 K, 101 kPa, x2 = 0.8487	0.468 ± 0.004
298.15 K, 101 kPa, x2 = 0.9146	0.45 ± 0.004
303.15 K, 101.32 kPa, x2 = 0.0599	0.679 ± 0.018
303.15 K, 101.32 kPa, x2 = 0.1789	0.638 ± 0.017
303.15 K, 101.32 kPa, x2 = 0.2918	0.601 ± 0.016
303.15 K, 101.32 kPa, x2 = 0.4303	0.557 ± 0.015
303.15 K, 101.32 kPa, x2 = 0.4994	0.535 ± 0.014
303.15 K, 101.32 kPa, x2 = 0.5537	0.52 ± 0.014
303.15 K, 101.32 kPa, x2 = 0.6001	0.507 ± 0.013
303.15 K, 101.32 kPa, x2 = 0.6951	0.483 ± 0.013
303.15 K, 101.32 kPa, x2 = 0.7859	0.457 ± 0.012
303.15 K, 101.32 kPa, x2 = 0.873	0.437 ± 0.012
303.15 K, 101.32 kPa, x2 = 0.9583	0.414 ± 0.011
308.15 K, 101 kPa, x2 = 0.0459	0.643 ± 0.005
308.15 K, 101 kPa, x2 = 0.1515	0.61 ± 0.005
308.15 K, 101 kPa, x2 = 0.2504	0.579 ± 0.005
308.15 K, 101 kPa, x2 = 0.349	0.551 ± 0.005
308.15 K, 101 kPa, x2 = 0.4636	0.518 ± 0.004
308.15 K, 101 kPa, x2 = 0.4948	0.51 ± 0.004
308.15 K, 101 kPa, x2 = 0.5519	0.495 ± 0.004
308.15 K, 101 kPa, x2 = 0.6488	0.47 ± 0.004
308.15 K, 101 kPa, x2 = 0.7509	0.444 ± 0.004
308.15 K, 101 kPa, x2 = 0.8487	0.421 ± 0.004
308.15 K, 101 kPa, x2 = 0.9146	0.406 ± 0.004
313.15 K, 101.32 kPa, x2 = 0.2056	0.565 ± 0.015
313.15 K, 101.32 kPa, x2 = 0.4079	0.508 ± 0.013
313.15 K, 101.32 kPa, x2 = 0.5023	0.483 ± 0.013
313.15 K, 101.32 kPa, x2 = 0.5988	0.459 ± 0.012
313.15 K, 101.32 kPa, x2 = 0.8018	0.411 ± 0.011

CCCCCCCCCCCC + CC(C)O
viscosity [mPa·s], 101.32 kPa
Settings	293.15 K	298.15 K	303.15 K
x2 = 0.0422	1.446 ± 0.018	1.325 ± 0.017	1.219 ± 0.016
x2 = 0.0957	1.424 ± 0.018	1.306 ± 0.017	1.191 ± 0.015
x2 = 0.2215	1.397 ± 0.018	1.276 ± 0.016	1.177 ± 0.015
x2 = 0.3267	1.396 ± 0.017	1.27 ± 0.016	1.164 ± 0.015
x2 = 0.3943	1.407 ± 0.017	1.28 ± 0.016	1.167 ± 0.015
x2 = 0.4959	1.421 ± 0.017	1.28 ± 0.016	1.16 ± 0.014
x2 = 0.5981	1.48 ± 0.018	1.324 ± 0.016	1.192 ± 0.015
x2 = 0.6957	1.566 ± 0.019	1.392 ± 0.017	1.243 ± 0.015
x2 = 0.8012	1.714 ± 0.02	1.503 ± 0.018	1.33 ± 0.016
x2 = 0.9005	1.92 ± 0.022	1.674 ± 0.02	1.467 ± 0.017
x2 = 0.9502	2.101 ± 0.024	1.815 ± 0.021	1.58 ± 0.019

CCOC(=O)OCC + CC(C)OC(C)C
viscosity [mPa·s], 100 kPa
Settings	x1 = 0.0986	x1 = 0.1988	x1 = 0.3012	x1 = 0.4026	x1 = 0.4998	x1 = 0.5976	x1 = 0.7008	x1 = 0.8014	x1 = 0.9009
303.15 K	0.325 ± 0.007	0.351 ± 0.008	0.379 ± 0.008	0.409 ± 0.009	0.442 ± 0.01	0.481 ± 0.01	0.528 ± 0.011	0.58 ± 0.012	0.636 ± 0.013
308.15 K	0.309 ± 0.007	0.332 ± 0.007	0.359 ± 0.008	0.387 ± 0.008	0.419 ± 0.009	0.455 ± 0.01	0.497 ± 0.011	0.546 ± 0.012	0.599 ± 0.013
313.15 K	0.296 ± 0.007	0.317 ± 0.007	0.341 ± 0.008	0.369 ± 0.008	0.398 ± 0.009	0.432 ± 0.009	0.472 ± 0.01	0.516 ± 0.011	0.566 ± 0.012

CCC#N + CS(C)=O
viscosity [mPa·s]
Settings	298.15 K	303.15 K	308.15 K	313.15 K	318.15 K	323.15 K
101 kPa, x2 = 0.1078	0.49 ± 0.01	0.47 ± 0.01	0.44 ± 0.01	0.43 ± 0.01	0.4 ± 0.01	0.35 ± 0.01
101 kPa, x2 = 0.2092	0.56 ± 0.01	0.54 ± 0.01	0.51 ± 0.01	0.48 ± 0.01	0.46 ± 0.01	0.4 ± 0.01
101 kPa, x2 = 0.3026	0.63 ± 0.01	0.6 ± 0.01	0.57 ± 0.01	0.55 ± 0.01	0.52 ± 0.01	0.45 ± 0.01
101 kPa, x2 = 0.3983	0.72 ± 0.02	0.69 ± 0.02	0.65 ± 0.01	0.62 ± 0.01	0.6 ± 0.01	0.51 ± 0.01
101 kPa, x2 = 0.4995	0.85 ± 0.02	0.81 ± 0.02	0.75 ± 0.02	0.71 ± 0.02	0.68 ± 0.02	0.58 ± 0.01
101 kPa, x2 = 0.6026	1.01 ± 0.02	0.96 ± 0.02	0.89 ± 0.02	0.84 ± 0.02	0.79 ± 0.02	0.68 ± 0.02
101 kPa, x2 = 0.7077	1.2 ± 0.03	1.12 ± 0.02	1.04 ± 0.02	0.98 ± 0.02	0.92 ± 0.02	0.78 ± 0.02
101 kPa, x2 = 0.7966	1.39 ± 0.03	1.29 ± 0.03	1.2 ± 0.03	1.1 ± 0.02	1.05 ± 0.02	0.89 ± 0.02
101 kPa, x2 = 0.9014	1.67 ± 0.04	1.54 ± 0.03	1.4 ± 0.03	1.31 ± 0.03	1.23 ± 0.03	1.03 ± 0.02
101.33 kPa, x1 = 0.1009	–	1.547 ± 0.0093	–	–	–	–
101.33 kPa, x1 = 0.202	–	1.322 ± 0.0081	–	–	–	–
101.33 kPa, x1 = 0.3031	–	1.12 ± 0.007	–	–	–	–
101.33 kPa, x1 = 0.4043	–	0.9436 ± 0.006	–	–	–	–
101.33 kPa, x1 = 0.499	–	0.8012 ± 0.0053	–	–	–	–
101.33 kPa, x1 = 0.6002	–	0.6745 ± 0.0047	–	–	–	–
101.33 kPa, x1 = 0.7153	–	0.5619 ± 0.0042	–	–	–	–
101.33 kPa, x1 = 0.798	–	0.4937 ± 0.0039	–	–	–	–
101.33 kPa, x1 = 0.8994	–	0.4328 ± 0.0036	–	–	–	–

CCn1cc[n+](C)c1.F[B-](F)(F)F + O
Settings	viscosity [mPa·s]
293.15 K, 101 kPa, x2 = 0.3047	19.25 ± 1.3

CCOC(=O)OCC + CCCCCCCCCCCC
298.15 K, 101.3 kPa
Settings	viscosity [mPa·s]
x1 = 0.0152	1.301 ± 0.017
x1 = 0.0779	1.228 ± 0.016
x1 = 0.1327	1.18 ± 0.016
x1 = 0.1841	1.133 ± 0.015
x1 = 0.2993	1.047 ± 0.014
x1 = 0.4701	0.942 ± 0.012
x1 = 0.6163	0.86 ± 0.011
x1 = 0.7539	0.793 ± 0.01
x1 = 0.9071	0.745 ± 0.009
x2 = 0.014	0.741 ± 0.009

OCCN(CCO)CCO + O
viscosity
Settings	293.15 K	298.15 K	303.15 K	308.15 K	313.15 K	323.15 K
101 kPa, x1 = 0.029	2 ± 0.017 mPa·s	–	–	–	–	0.988 ± 0.009 mPa·s
101 kPa, x1 = 0.0434	–	2.499 ± 0.017 mPa·s	2.194 ± 0.014 mPa·s	–	1.661 ± 0.011 mPa·s	–
101 kPa, x1 = 0.0649	–	3.802 ± 0.025 mPa·s	3.446 ± 0.022 mPa·s	–	2.406 ± 0.016 mPa·s	–
101 kPa, x1 = 0.0966	–	6.839 ± 0.043 mPa·s	5.658 ± 0.035 mPa·s	–	4.005 ± 0.025 mPa·s	–
101 kPa, x1 = 0.11	8.51 ± 0.18 mPa·s	–	–	–	–	3.24 ± 0.036 mPa·s
101 kPa, x1 = 0.1312	–	11.65 ± 0.07 mPa·s	9.419 ± 0.054 mPa·s	–	6.419 ± 0.038 mPa·s	–
101 kPa, x1 = 0.1769	–	20.76 ± 0.13 mPa·s	16.89 ± 0.09 mPa·s	–	10.97 ± 0.06 mPa·s	–
101 kPa, x1 = 0.27	64.6 ± 1.9 mPa·s	–	–	–	–	14.8 ± 0.23 mPa·s
101 kPa, x1 = 0.2724	–	54.52 ± 0.26 mPa·s	41.37 ± 0.22 mPa·s	–	25.21 ± 0.13 mPa·s	–
101 kPa, x1 = 0.3481	–	96.45 ± 1.1 mPa·s	73.09 ± 0.53 mPa·s	–	41.11 ± 0.21 mPa·s	–
101 kPa, x1 = 0.4784	–	187.3 ± 4.3 mPa·s	131.4 ± 2.2 mPa·s	–	70.8 ± 0.47 mPa·s	–
101 kPa, x1 = 0.5814	–	278.1 ± 8.1 mPa·s	187.2 ± 4.3 mPa·s	–	97.64 ± 1.2 mPa·s	–
101 kPa, x1 = 0.7166	–	390.4 ± 14 mPa·s	269.9 ± 7.8 mPa·s	–	138.2 ± 2.4 mPa·s	–
101 kPa, x1 = 0.8347	–	472.7 ± 18 mPa·s	328.9 ± 10 mPa·s	–	166.2 ± 3.4 mPa·s	–
101 kPa, x1 = 0.9177	–	542.7 ± 22 mPa·s	369.7 ± 13 mPa·s	–	184.6 ± 4.1 mPa·s	–
101 kPa, x1 = 0.9724	–	585.3 ± 24 mPa·s	396.2 ± 14 mPa·s	–	196.3 ± 4.6 mPa·s	–
101.3 kPa, x1 = 0.0064	1.141 ± 0.022 mPa·s	0.998 ± 0.019 mPa·s	0.872 ± 0.019 mPa·s	0.765 ± 0.018 mPa·s	0.664 ± 0.014 mPa·s	0.555 ± 0.013 mPa·s
101.3 kPa, x1 = 0.0134	1.33 ± 0.034 mPa·s	1.161 ± 0.029 mPa·s	1.039 ± 0.025 mPa·s	0.914 ± 0.022 mPa·s	0.801 ± 0.02 mPa·s	0.688 ± 0.016 mPa·s
101.3 kPa, x1 = 0.0294	–	1.789 ± 0.034 mPa·s	1.559 ± 0.028 mPa·s and 1.57 ± 0.028 mPa·s	1.369 ± 0.025 mPa·s	–	0.988 ± 0.017 mPa·s
